From PMC12040169 (PLOS Biology, 2025)

Test: in vitro
Settings: human, hela cells, % viability

Compound	viability at 28.5 h, 10 µM
CCn1c(SCC(N)=O)nnc1C(C)Oc1ccc(C)c(C)c1 (centres unmarked) [CBK270289]	88.4%
O=C(C1c2ccccc2Oc2ccccc21)N1C2CCC1CC(O)(c1ccco1)C2 (centres unmarked) [CBK286169]	93.8%
CCC(=O)NC1Cc2cccc3c2N(CCC3)C1=O (centres unmarked) [CBK010667]	113%
COc1ncnc(C)c1-c1cc(C)c(OC)c(C)c1 [CBK306852]	100%
COc1ccc2c(c1)c(=O)oc1c(CN3CCCC3)c(O)ccc12 [CBK266814]	95.3%
COc1ncc(-c2nccnc2N[C@H](C)c2ccccc2)c(OC)n1 [CBK036588]	83.7%
CNC(=O)Oc1cc(C)c(SC)c(C)c1 [CBK010586]	77.2%
Cc1cccc(-c2cc(C(=O)Nc3sc4c(c3C#N)CCCCCC4)c3ccccc3n2)c1 [CBK262632]	103%
COc1ccccc1-c1nccnc1NCC(C)O (centres unmarked) [CBK037637]	90.4%
Cc1nc(CCC(=O)N2Cc3cnn(Cc4ccc(F)cc4)c3C2)n[nH]1 [CBK306993]	109%
CCCOc1c(Cl)cc(/C=C2\N=C(c3ccc(OC)cc3)OC2=O)cc1OCC [CBK098846]	93.3%
Oc1nc2ccccc2nc1-c1ccccc1 [CBK016193]	94.3%
COc1ccc(-c2cc(NC3CCCCC3)ncn2)cc1 [CBK090904]	96.8%
CC1(C)COC(=O)N1C1CCN(C(=O)c2ccno2)CC1 [CBK044383]	95.7%
Cc1ccc2c(c1)cc(C(=O)N(C)CC1(C)COC1)n2C [CBK281723]	86.4%
CSc1nnc(-c2ccc(C(C)(C)C)cc2)n1Cc1ccco1 [CBK017071]	92.1%
CSc1nnc(CC2CCN(C(=O)c3cc(C)on3)CC2)n1C [CBK307481]	108%
COc1ccc(NC(=O)c2nn(-c3nc4ccccc4o3)c3ccccc23)cc1 [CBK048492]	93.8%
O=C(N/N=C\c1cccc(OC(=O)c2cccs2)c1)c1ccc([N+](=O)[O-])cc1 [CBK262289]	77.3%
CCOc1ccccc1NC(=O)CCCN1C(=O)c2ccccc2C1=O [CBK265608]	107%
c1ccc(CCN2CCCN(c3ccnc(OCCN4CCOCC4)n3)CC2)nc1 [CBK083813]	94.9%
CCNS(=O)(=O)c1ccc(CCC(=O)Nc2ccc3c(c2)OCCO3)cc1 [CBK268255]	109%
Nc1c2c(nc3ccccc13)CCCC2O (centres unmarked) [CBK008271F]	95.7%

Compound	viability at 28.5 h, 10 µM
COc1ccccc1NC(=O)C1=C(C)Nc2nnnn2C1c1ccc(OC)c([N+](=O)[O-])c1 (centres unmarked) [CBK293954]	83.8%
COc1cc(/C=N/NC(=O)CCN2CCN(C)CC2)cc(OC)c1O [CBK261500]	100%
O=C(c1cscn1)N1CCC2(CCCNC2)C1 (centres unmarked) [CBK153230C]	97%
O=S1(=O)CCN(Cc2cnn(-c3ccc(OC(F)(F)F)cc3)n2)CC1 [CBK112883]	95.3%
O=C(O)CN(c1cccc([N+](=O)[O-])c1)S(=O)(=O)c1ccccc1 [CBK262684]	85.6%
COc1ccc(CN2CCc3cc(OC)c(OC)cc3C2c2ccccc2)cc1CO (centres unmarked) [CBK286358]	92.2%
Cc1ccc(OCC(=O)O/N=C(\N)c2ccccn2)cc1C [CBK264755]	101%
COc1ccc(C(=O)N2C[C@@H]3C[C@H](C2)c2ccc(NC(=O)C4CC4)c(=O)n2C3)cc1 [CBK289072]	90%
O=C(CSc1nnc(Cc2cccs2)n1-c1ccccc1)Nc1ccc(F)c(Cl)c1 [CBK267589]	92.3%
CN(Cc1ccc(N2CCCCC2)cc1)S(=O)(=O)c1ccsc1C(=O)O [CBK295333]	85.5%
OCc1cccc(-c2nccnc2NCc2ccc(F)cc2)c1 [CBK037670]	103%
COc1ccc(-c2nnc(SCC(=O)Nc3cc(C(C)(C)C)no3)n2C2CCCCC2)cc1OC [CBK295131]	105%
Brc1ccccc1OCCc1ccccc1 [CBK004519]	95.4%
CC(C)(C)NS(=O)(=O)c1ccc(NC(=O)c2cc(-c3ccccn3)nc3c(Cl)cccc23)cc1 [CBK267783]	99.6%
c1cncc(-c2ncc(-c3ccco3)c(-c3ccco3)n2)c1 [CBK284503]	93.5%
CO[C@H]1CN(C)C[C@@H]1NC(=O)c1cccc2c1NCCC2 [CBK307107]	106%
CCOC(=O)c1ccc(N2CCN(C(C)=O)CC2)c(NC(=O)c2cccc(F)c2)c1 [CBK270263]	93.8%
O=C(NCCCNc1ccc([N+](=O)[O-])cc1)c1cccs1 [CBK066825]	94.1%
CC(C)c1ccc(S(=O)(=O)N2CCN(c3ncnc4c3oc3ccccc34)CC2)cc1 [CBK296936]	84.9%
Nc1ncc(-c2ccc(O)cc2)nc1N1CCN(CCO)CC1 [CBK063685]	105%
CCn1cc(NC(=O)CC2CCN(Cc3cccc(C(F)(F)F)c3)CC2)cn1 [CBK286118]	89.9%
CC(=O)N1CCN(C(=O)NC(C)C)C[C@@H]1C(=O)N[C@@H](CC1CCCCC1)C(N)=O [CBK289633]	91.8%
COc1cccc(NC(=O)c2ccc(-c3ccsc3)nc2NCC2CC2)c1 [CBK106227]	90.5%

Compound	viability at 28.5 h, 10 µM
c1csc(C2NN=C3C4CCN(CC4)C32)c1 (centres unmarked) [CBK021915]	91.5%
CC(=O)Nc1ccc(S(=O)(=O)Nc2ccc(S(=O)(=O)Nc3ccc(C)c(C)c3)cc2)cc1 [CBK264643]	101%
Cc1ccc(-c2nc3ccc(C)cc3c(C(=O)OCC(=O)c3cccc([N+](=O)[O-])c3)c2C)cc1 [CBK264436]	104%
Cc1ccsc1CN1CCCCC1CO (centres unmarked) [CBK026348]	107%
CCOC(=O)c1cnn2c(O)cc(CN(Cc3cccs3)C3CC3)nc12 [CBK305625]	96.9%
CN(C(=O)CN1CCOC(Cn2cccn2)C1)C1(C#N)CCCCC1 (centres unmarked) [CBK305335]	97.3%
O=c1c(O)c(-c2ccc(F)cc2)oc2ccccc12 [CBK288369]	72.4%
O=S(=O)(NCC1CCCO1)c1cccs1 (centres unmarked) [CBK044263]	103%
CCn1ncc(Cn2cc(NC(=O)C3CCCCC3C(=O)O)cn2)c1C (centres unmarked) [CBK286859]	98.9%
O=c1n(Cc2ccncc2)nc(C(F)(F)F)c2cccn12 [CBK283966]	87%
Cn1c(C(=O)NCCN2CCOCC2)cc2oc(-c3ccccc3)nc2c1=O [CBK056726T]	87.8%
CCOc1cc(OCC)cc(C(=O)N2CCC3(CC2)CC(=O)c2c(OC)cccc2O3)c1 [CBK168012]	108%
O=C(COc1ccc(CCO)cc1)Nc1ccccc1-c1ccccc1 [CBK269666]	80.9%
Cc1ccc(-c2n[nH]c(=S)n2CC(=O)N2CCC(C(=O)Nc3ccc4c(c3)OCO4)CC2)cc1 [CBK297887]	82%
Cc1nc(CN2CCCN(S(=O)(=O)c3ccc(C(=O)c4ccccc4)cc3)CC2)c[nH]1 [CBK063029]	113%
Cc1cc(C(=O)NCCc2ccc(S(N)(=O)=O)cc2)ccc1[N+](=O)[O-] [CBK264390]	105%
CCN(CC)C(=O)CN1CCCN(c2cc(OCc3cc(C)on3)ncn2)CC1 [CBK083337T]	97%
Cc1ccc(S(=O)(=O)Nc2nnc(SCC(=O)Nc3ccc4c(c3)OCO4)s2)cc1 [CBK026675]	100%
COc1ccc(-c2nnc(SCCC(=O)O)[nH]2)cc1 [CBK300506]	93.4%
Cc1ncsc1CCN(C)C(C)C(=O)Nc1nccs1 (centres unmarked) [CBK307709]	109%
Cc1ccc(NC(=O)/C(C#N)=C/c2ccc(-c3ccccc3C(=O)O)o2)cc1Cl [CBK263208]	102%
COCC(=O)Nc1ccc(N2CCCC2=O)c(Cl)c1 [CBK256871]	106%
CC(C)S(=O)(=O)n1ccn(-c2ccc(N(C)C)cc2)c1=O [CBK106600]	95.7%

Compound	viability at 28.5 h, 10 µM
CN(CCc1ccncc1)C(=O)c1[nH]nc2c1CCCCC2 [CBK283151]	96.9%
OC(COc1cccc2c1CCCC2)CN1CCC(O)(c2ccc(Cl)c(C(F)(F)F)c2)CC1 (centres unmarked) [CBK003581]	102%
OC1CCN(CC(O)Cn2c3ccccc3c3ccccc32)CC1 (centres unmarked) [CBK305784]	100%
Cc1ccc(OCC(=O)Nc2ccc(N3CCN(Cc4ccccc4)CC3)cc2)cc1C [CBK266085]	101%
CCOc1ccc(NC(=O)C(=O)NC2CCCCC2)cc1 [CBK261822]	105%
Nc1ncc(-c2ccc(Cl)cc2)nc1-c1ccc(CCC(=O)O)cc1 [CBK064063]	92.9%
COc1ccc(N(CC(=O)O)S(=O)(=O)c2ccccc2)c(OC)c1 [CBK262415]	108%
Cc1ccc(S(=O)(=O)N2CCN(C)CC2)cc1NC(=O)c1ccc(Br)o1 [CBK034260C]	99.3%
O=S(=O)(Nc1cc(C(F)(F)F)ccc1N1CCOCC1)c1ccc(-c2ccccn2)s1 [CBK062557]	79.5%
CCOC(=O)CNc1nc(OC)cc(OC)n1 [CBK093392]	86.7%
CC(=O)N1CCC(C(=O)NC(=O)Nc2ccccc2F)CC1 [CBK034848]	107%
COc1ccc([N+](=O)[O-])cc1COc1ccc2c(C(F)(F)F)cc(=O)oc2c1 [CBK265173]	96.4%
OCCCn1cc(CN2CCC(CO)C2)c2ccccc21 (centres unmarked) [CBK282114]	98.6%
CC[C@H](Cn1c(=O)oc2ccccc21)NC(=O)Cc1ccsc1 [CBK284543]	89.2%
Cc1n[nH]c(=O)c2nc(-c3ccc(=O)[nH]n3)[nH]c12 [CBK008745]	102%
COCC(=O)N[C@H]1CCN2C(=O)c3cc(-c4ccccc4F)ccc3NC(=O)[C@@H]2C1 [CBK289553]	95.6%
CC(C)c1nsc(NCCc2nnc3n2CCCC3)n1 [CBK306425]	92.4%
Nc1ccc2c(-c3ccsc3)ccnc2n1 [CBK067637]	95.5%
COCCNc1cc(-c2cccc3oc4ccccc4c23)ncn1 [CBK090794]	101%
Cc1csc(C(=O)N2CCC(c3cc(O)cc(C)n3)CC2)c1 [CBK283466]	89%
